Data reported in patent US4180436A, “Antibacterial compounds and process for production thereof” (Kyowa Hakko Kogyo Co., Ltd., priority 1977, dated 1979).
Converted amounts (≈) assume the structure as drawn. “Also recorded” adds a separate entry of the source. Each block holds one compound with its values, some of them ahead of it.

Legend:
[1] = Solubilities; assay type: physicochemical; conditions: solvents named in the value
[2] = test system: Escherichia coli ATCC 3655; test: antibacterial activity by agar dilution method; assay type: cell-based; conditions: ATCC3655, pH 7.0
Description: (§1) The antibacterial activity of the compound S551-II-A against various microorganism by agar dilution method (pH 7.0) is shown in Table 2.

[3] = test system: Staphylococcus aureus ATCC 6538P; test: antibacterial activity by agar dilution method; assay type: cell-based; conditions: ATCC6538P, pH 7.0
Description: as §1

[4] = test system: Klebsiella pneumoniae ATCC 10031; test: antibacterial activity by agar dilution method; assay type: cell-based; conditions: ATCC10031, pH 7.0
Description: as §1

[5] = test system: Proteus vulgaris ATCC 6897; test: antibacterial activity by agar dilution method; assay type: cell-based; conditions: ATCC6897, pH 7.0
Description: as §1

[6] = test system: Bacilus subtilis ATCC 10707; test: antibacterial activity by agar dilution method; assay type: cell-based; conditions: pH 7.0
Description: as §1

[7] = test system: Escherichia coli ATCC 3655; test: antibacterial activity by disc method; assay type: cell-based; conditions: ATCC3655, pH: no adjustment
Description: (§2) The antibacterial activity of the compound S551-II against various microorganisms by disc method (pH: no adjustment) is shown in the following Table 1.

[8] = test system: Candida albicans IAM 4888; test: antibacterial activity by disc method; assay type: cell-based; conditions: IAM4888, pH: no adjustment
Description: as §2

[9] = test system: Aspergillus niger ATCC 6275; test: antibacterial activity by disc method; assay type: cell-based; conditions: ATCC6275, pH: no adjustment
Description: as §2

[10] = test system: gypseum IFO 5948; test: antibacterial activity by disc method; assay type: cell-based; conditions: pH: no adjustment
Description: as §2

[11] = test system: Myrothecium verrucaria IAM 5063; test: antibacterial activity by disc method; assay type: cell-based; conditions: Albifimbria verrucaria, IAM5063, pH: no adjustment
Description: as §2

[12] = test system: Escherichia coli IAM 1268; test: antibacterial activity by disc method; assay type: cell-based; conditions: IAM1268, pH: no adjustment
Description: as §2

[13] = test system: Alternaria solani IFO 5924; test: antibacterial activity by disc method; assay type: cell-based; conditions: IFO5924, pH: no adjustment
Description: as §2

[14] = test system: Trycophyton mentagrophytes IAM 5064; test: antibacterial activity by disc method; assay type: cell-based; conditions: pH: no adjustment
Description: as §2

[15] = test system: Pseudomonas aeruginosa IAM 1156; test: antibacterial activity by disc method; assay type: cell-based; conditions: IAM1156, pH: no adjustment
Description: as §2

[16] = test system: Penicillium chrysogenum Q 176; test: antibacterial activity by disc method; assay type: cell-based; conditions: Q176, pH: no adjustment
Description: as §2

[17] = test system: Serratia marcescens IAM 1022; test: antibacterial activity by disc method; assay type: cell-based; conditions: IAM1022, pH: no adjustment
Description: as §2

[18] = test system: Salmonella enteritidis; test: antibacterial activity by disc method; assay type: cell-based; conditions: Salmonella enterica, pH: no adjustment
Description: as §2

[19] = test system: Cladosporium herbarum Link Fr IAM 5059; test: antibacterial activity by disc method; assay type: cell-based; conditions: IAM5059, pH: no adjustment
Description: as §2

[20] = test system: Diplococcus pneumoniae; test: antibacterial activity by disc method; assay type: cell-based; conditions: Streptococcus pneumoniae, pH: no adjustment
Description: as §2

[21] = test system: Penicillium chrysogenum IAM 7142; test: antibacterial activity by disc method; assay type: cell-based; conditions: IAM7142, pH: no adjustment
Description: as §2

[22] = test system: Saccharomyces cerevisiae IAM 4485; test: antibacterial activity by disc method; assay type: cell-based; conditions: IAM4485, pH: no adjustment
Description: as §2

[23] = test system: Shigella sonnei E23; test: antibacterial activity by disc method; assay type: cell-based
Description: as §2

[24] = test system: Chaetomium globosum ATCC 6025; test: antibacterial activity by disc method; assay type: cell-based; conditions: ATCC6025, pH: no adjustment
Description: as §2

[25] = test system: Klebsiella pneumoniae 348; test: antibacterial activity by disc method; assay type: cell-based; conditions: pH: no adjustment
Description: as §2

[26] = test system: Staphylococcus aureus FAD 209P; test: antibacterial activity by disc method; assay type: cell-based; conditions: pH: no adjustment
Description: as §2

[27] = test system: Irycoderma T-1 ATCC 9645; test: antibacterial activity by disc method; assay type: cell-based
Description: as §2

[28] = test system: Pseudomonas fluorescens ATCC 27; test: antibacterial activity by disc method; assay type: cell-based; conditions: ATCC27, pH: no adjustment
Description: as §2

[29] = test system: Aspergillus niger IAM 2026; test: antibacterial activity by disc method; assay type: cell-based; conditions: IAM2026, pH: no adjustment
Description: as §2

[30] = test system: Proteus vulgaris HX19 IAM 1025; test: antibacterial activity by disc method; assay type: cell-based; conditions: IAM1025, pH: no adjustment
Description: as §2

[31] = test system: Bacillus subtilis IAM 1026; test: antibacterial activity by disc method; assay type: cell-based; conditions: IAM1026, pH: no adjustment
Description: as §2

[32] = test system: Saccharomyces rouxii M-9; test: antibacterial activity by disc method; assay type: cell-based; conditions: Zygosaccharomyces rouxii, M9, pH: no adjustment
Description: as §2

[33] = test system: Bacillus subtilis NA 64; test: antibacterial activity by disc method; assay type: cell-based; conditions: NA64, pH: no adjustment
Description: as §2

[34] = test system: Bacillus subtilis PCI 219; test: antibacterial activity by disc method; assay type: cell-based; conditions: PCI219, pH: no adjustment
Description: as §2

[35] = test system: Dusariium moniliforme IAM 5062; test: antibacterial activity by disc method; assay type: cell-based; conditions: pH: no adjustment
Description: as §2

[36] = test system: Mucor spinescens IAM 6071; test: antibacterial activity by disc method; assay type: cell-based; conditions: IAM6071, pH: no adjustment
Description: as §2

[37] = test system: Sarcina lutea IAM 1099; test: antibacterial activity by disc method; assay type: cell-based; conditions: Micrococcus luteus, IAM1099, pH: no adjustment
Description: as §2

[38] = test system: Aspergillus oryzae NRRL 692; test: antibacterial activity by disc method; assay type: cell-based; conditions: NRRL692, pH: no adjustment
Description: as §2

MIC [2]: 500 mg/L (≈ 2140 µM)
MIC [3]: 200 mg/L (≈ 858 µM)
MIC [4]: 200 mg/L (≈ 858 µM)
MIC [5]: 25 mg/L (≈ 107 µM)
MIC [6]: 200 mg/L (≈ 858 µM)
SMILES: O=C(/C=C/c1cc[nH]c1)OC1=C(O)CCC1=O [Compound S551-II-A]
Solubilities [1]: soluble in acetone, dimethylsulfoxide and alkaline solution; also recorded: slightly soluble in methanol; also recorded: insoluble in benzene, chloroform ethylether and hexane

SMILES: CC(=O)OC1CC(/C=C/C(=O)OC2=C(O)CCC2=O)=CN1 (centres unmarked) [Compound S551-II]
MIC [7]: 500 mg/L (≈ 1700 µM)
MIC [8]: > 1000 mg/L
MIC [9]: 1000 mg/L (≈ 3410 µM)
MIC [10]: 125 mg/L (≈ 426 µM)
MIC [11]: 125 mg/L (≈ 426 µM)
MIC [12]: 1000 mg/L (≈ 3410 µM)
MIC [13]: 8 mg/L (≈ 27.3 µM)
MIC [14]: 4 mg/L (≈ 13.6 µM)
MIC [15]: > 1000 mg/L
MIC [16]: 62.5 mg/L (≈ 213 µM)
MIC [17]: > 1000 mg/L
MIC [18]: > 1000 mg/L
MIC [19]: 31.2 mg/L (≈ 106 µM)
MIC [20]: 1000 mg/L (≈ 3410 µM)
MIC [21]: 125 mg/L (≈ 426 µM)
MIC [22]: 1000 mg/L (≈ 3410 µM)
MIC [23]: > 100 mg/L
MIC [24]: 500 mg/L (≈ 1700 µM)
MIC [25]: > 1000 mg/L
MIC [26]: 62.5 mg/L (≈ 213 µM)
MIC [27]: 16 mg/L (≈ 54.6 µM)
MIC [28]: > 1000 mg/L
MIC [29]: 250 mg/L (≈ 852 µM)
MIC [30]: > 1000 mg/L
MIC [31]: 31.2 mg/L (≈ 106 µM)
MIC [32]: 100 mg/L (≈ 341 µM)
MIC [33]: 62.5 mg/L (≈ 213 µM)
MIC [34]: 62.5 mg/L (≈ 213 µM)
MIC [35]: 125 mg/L (≈ 426 µM)
MIC [36]: 500 mg/L (≈ 1700 µM)
MIC [37]: 125 mg/L (≈ 426 µM)
MIC [38]: 62.5 mg/L (≈ 213 µM)
